Consider five compounds from PMC11326381, “Structural Study of Selectivity Mechanisms for JNK3 and p38α with Indazole Scaffold Probing Compounds” (Research Square, 2024).

Molecules are shown by their SMILES.

The subject of one experiment is JNK1. Particulars: cited from earlier work.
The target of another experiment is JNK3 (Homo sapiens, UniProt P53779). The experiment in a line: HTRF enzyme inhibition assay, JNK3. The format is biochemical. On the procedure: Homogeneous Time-resolved Fluorescence Assay (HTRF)
Sequence of JNK3 (P53779 whole entry): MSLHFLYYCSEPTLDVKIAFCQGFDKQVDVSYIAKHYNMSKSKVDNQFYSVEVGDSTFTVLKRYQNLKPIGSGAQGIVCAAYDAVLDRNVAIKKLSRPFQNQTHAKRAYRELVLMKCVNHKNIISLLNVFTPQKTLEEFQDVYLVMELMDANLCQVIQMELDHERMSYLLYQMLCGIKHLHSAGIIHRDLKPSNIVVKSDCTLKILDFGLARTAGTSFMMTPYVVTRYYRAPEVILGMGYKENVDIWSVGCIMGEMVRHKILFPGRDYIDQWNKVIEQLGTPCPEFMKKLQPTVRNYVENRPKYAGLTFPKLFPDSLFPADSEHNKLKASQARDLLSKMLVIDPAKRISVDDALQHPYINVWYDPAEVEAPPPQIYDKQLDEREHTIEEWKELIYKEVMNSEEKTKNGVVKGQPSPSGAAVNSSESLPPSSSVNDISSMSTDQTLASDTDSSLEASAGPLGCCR
Enzyme inhibition assays to determine IC50 values for the kinases were performed as described previously.
On the technique in general: In TR-FRET formats the signal depends on donor and acceptor labels being close together.

For `Cc1ccc(-n2nc(C(C)(C)C)cc2NC(=O)Nc2ccc(OCCN3CCOCC3)c3ccccc23)cc1` [BIRB796], the “affinity for JNK1” value with JNK1 is given as “no affinity”.

As to `CNC(=O)c1cc(-n2ncc3cc(Nc4c(F)cccc4Cl)c(CN4CCC4)cc32)cs1` [Compound 21G], the IC50 against JNK3 was determined as 137 nM.

In turn, `CNC(=O)c1cc(-n2ncc3cc(Nc4c(F)cccc4Cl)c(COC)cc32)cs1` [Compound 21J] came in with an IC50 against JNK3 of 6 nM.

As for `COc1ccccc1Nc1cc2cnn(-c3cc(C(=O)NC4COC4)sc3C)c2cc1F` [Compound 23GA], on JNK3, it took 1000 nM to reach half-maximal inhibition (IC50).

Compound `COc1ccccc1Nc1cc2cnn(-c3csc(C(=O)NC4COC4)c3)c2cc1F` [Compound 23M] came in with a concentration for half-maximal inhibition (IC50) on JNK3 of 14 nM.

What is called IC50 is the concentration at which inhibition is half-maximal.
